Where two headings read alike, the source gives them in different places.
How the values were obtained:
[1] = target: T1, human adrenergic beta2 receptor (Homo sapiens, UniProt P07550); assay: Human adrenergic β2 receptor binding assay (3H-CGP12177, Sf9 membranes)
T1 construct: purchased Perkin Elmer; host or cells: Sf9 cells (membranes)
Experimental: Test 1: Human Adrenergic β1 and β2 Receptor Binding Assays
The study of binding to human adrenergic beta1 and beta2 receptors was performed using commercial membranes prepared from Sf9 cells where they are overexpressed (Perkin Elmer). The membrane suspensions (16 μg/well for beta1 and 5 μg/well for beta2) in assay buffer (75 mM Tris/HCl with 12.5 mM MgCl2 and 2 mM EDTA pH=7.4) were incubated with 0.14 or 0.6 nM of 3H-CGP12177 (Amersham) for beta 1 and beta 2 receptors respectively in a final volume of 250 μl, in GFC Multiscreen 96 well plates (Millipore) previously treated with assay buffer containing 0.3% PEI (Sigma). Non specific binding was measured in the presence of 1 μM propanolol. Incubation was maintained for 60 minutes at room temperature and with gentle shaking. The binding reactions were terminated by filtration and washing with 2.5 volumes of Tris/HCl 50 mM pH=7.4. The affinity of each test compound to the receptor was determined by using ten different concentrations ran in duplicate. IC50s were calculated using Activity Base software from IDBS and the four parameters-log equation.

[2] = target: T2, human muscarinic M3 receptor (Homo sapiens, UniProt P20309); assay: Human muscarinic M3 receptor binding assay ([3H]-NMS, CHO-K1 membranes)
T2 construct: purchased Perkin Elmer; host or cells: CHO-K1 cells (membranes)
T2 sequence (P20309 whole entry): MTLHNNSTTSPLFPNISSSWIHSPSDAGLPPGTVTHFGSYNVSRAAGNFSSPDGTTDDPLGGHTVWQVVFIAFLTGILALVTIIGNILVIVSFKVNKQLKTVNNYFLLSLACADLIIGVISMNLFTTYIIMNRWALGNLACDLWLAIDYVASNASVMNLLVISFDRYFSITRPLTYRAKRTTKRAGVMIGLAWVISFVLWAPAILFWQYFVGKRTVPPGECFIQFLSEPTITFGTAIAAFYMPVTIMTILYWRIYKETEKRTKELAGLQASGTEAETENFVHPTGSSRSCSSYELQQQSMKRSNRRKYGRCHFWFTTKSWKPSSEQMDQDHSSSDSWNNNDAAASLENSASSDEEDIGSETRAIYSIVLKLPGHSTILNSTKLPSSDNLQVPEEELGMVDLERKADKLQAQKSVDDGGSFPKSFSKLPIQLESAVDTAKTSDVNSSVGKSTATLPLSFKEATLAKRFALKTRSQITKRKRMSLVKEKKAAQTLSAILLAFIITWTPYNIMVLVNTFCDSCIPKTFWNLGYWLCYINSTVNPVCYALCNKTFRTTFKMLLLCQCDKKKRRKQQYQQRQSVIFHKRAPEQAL
Experimental: Test 2: Human Muscarinic M1, M2, M3, M4 and M5 Receptors Binding Assays
The study of binding to human muscarinic M1, M2, M3, M4 and M5 receptors was performed using commercial membranes (Perkin Elmer) prepared from CHO-K1 cells. Radioligand binding experiments were conducted in 96 polypropylene well plates in a total volume of 200 μl. All reagents were dissolved in assay binding buffer (PBS with calcium and magnesium, SIGMA), except compounds that were dissolved in DMSO 100%. Non-specific binding (NSB) was measured in the presence of 1 μM atropine. [3H]-NMS was used as the radioligand at a concentration of 1 nM for M2, M3 and M5 and 0.3 nM for M1 and M4. [3H]-NMS and antagonists were incubated with membranes that express human muscarinic receptors M1, M2, M3, M4 and M5 at concentrations of 8.1, 10, 4.9, 4.5 and 4.9 μg/well, respectively. After an incubation period of two hours with gentle shaking, 150 μl of the reaction mix were transferred to 96 GF/C filter plates (Millipore), previously treated with wash buffer (Tris 50 mM; NaCl 100 mM; pH:7.4), containing 0.05% PEI (Sigma) during one hour. Bound and free [3H]-NMS were separated by rapid vacuum filtration in a manifold from Millipore and washed four times with ice cold wash buffer. After drying 30 min, 30 μl of OPTIPHASE Supermix were added to each well and radioactivity quantified using a Microbeta microplate scintillation counter.
The affinity of each test compound to the receptors was determined by using ten different concentrations ran in duplicate. IC50s were calculated using Activity Base software from IDBS and the four parameters-log equation.

[3] = membranes from Sf9 cells overexpressing human beta2, 0.6 nM 3H-CGP12177, read-out: Binding IC50, β2
[4] = membranes from CHO-K1 cells expressing human M3, 1 nM [3H]-NMS, read-out: Binding IC50, M3

Molecule	IC50 [1, 3]	IC50 [2, 4]	IC50 [1]	IC50 [2]
CN(CCCn1ccc2cc(CNC[C@H](O)c3ccc(O)c4[nH]c(=O)ccc34)ccc21)[C@H]1CC[C@H](OC(=O)C(O)(c2cccs2)c2cccs2)CC1 (relative stereo) [Example 4, trans-4-[{3-[5-({[(2R)-2-hydroxy-2-(8-hydroxy-2-oxo-1,2-dihydroquinolin-5-yl)ethyl]amino}methyl)-1H-indol-1-yl]propyl}(methyl)amino]cyclohexyl hydroxy(di-2-thienyl)acetate dihydrofluoride]	220 nM	0.6 nM	–	–
CN(CCNC(=O)COc1ccc(CNC[C@H](O)c2ccc(O)c3[nH]c(=O)ccc23)cc1)[C@H]1CC[C@H](OC(=O)C(O)(c2cccs2)c2cccs2)CC1 (relative stereo) [Example 8, trans-4-[[2-({[4-({[(2R)-2-hydroxy-2-(8-hydroxy-2-oxo-1,2-dihydroquinolin-5-yl)ethyl]amino}methyl)phenoxy]acetyl}amino)ethyl](methyl)amino]cyclohexyl hydroxy(di-2-thienyl)acetate dihydrofluoride]	18 nM	2.2 nM	–	–
CN(CCCn1c(=O)oc2cc(CNC[C@H](O)c3ccc(O)c4[nH]c(=O)ccc34)ccc21)[C@H]1CC[C@H](OC(=O)C(O)(c2cccs2)c2cccs2)CC1 [Example 1, trans-4-[{3-[6-({[(2R)-2-hydroxy-2-(8-hydroxy-2-oxo-1,2-dihydroquinolin-5-yl)ethyl]amino}methyl)-2-oxo-1,3-benzoxazol-3(2H)-yl]propyl}(methyl)amino]cyclohexyl hydroxy(di-2-thienyl)acetate, dihydrofluoride]	140 nM	0.3 nM	–	–
CN(CCCn1c(=O)[nH]c2cc(CNC[C@H](O)c3ccc(O)c4[nH]c(=O)ccc34)ccc21)[C@H]1CC[C@H](OC(=O)C(O)(c2cccs2)c2cccs2)CC1 [Example 2, trans-4-[{3-[5-({[(2R)-2-hydroxy-2-(8-hydroxy-2-oxo-1,2-dihydroquinolin-5-yl)ethyl]amino}methyl)-2-oxo-2,3-dihydro-1H-benzimidazol-1-yl]propyl}(methyl)amino]cyclohexyl hydroxy(di-2-thienyl)acetate dihydrofluoride]	–	–	120 nM	0.4 nM
CN(CCCc1nc(-c2ccc(CNC[C@H](O)c3ccc(O)c4[nH]c(=O)ccc34)cc2)no1)[C@H]1CC[C@H](OC(=O)C(O)(c2cccs2)c2cccs2)CC1 [Example 5, trans-4-[(3-{3-[4-({[(2R)-2-hydroxy-2-(8-hydroxy-2-oxo-1,2-dihydroquinolin-5-yl)ethyl]amino}methyl)phenyl]-1,2,4-oxadiazol-5-yl}propyl)(methyl)amino]cyclohexyl hydroxy(di-2-thienyl)acetate dihydrofluoride]	2.7 nM	0.4 nM	–	–
CN(CCN(C)[C@H]1CC[C@H](OC(=O)C(O)(c2cccs2)c2cccs2)CC1)C(=O)COc1ccc(CNC[C@H](O)c2ccc(O)c3[nH]c(=O)ccc23)cc1 [Example 6, trans-4-[{2-[{[4-({[(2R)-2-hydroxy-2-(8-hydroxy-2-oxo-1,2-dihydroquinolin-5-yl)ethyl]amino}methyl)phenoxy]acetyl}(methyl)amino]ethyl}(methyl)amino]cycloh exyl hydroxy(di-2-thienyl)acetate dihydrofluoride]	34 nM	1.4 nM	–	–
COc1cc(-c2noc(CCCN(C)[C@H]3CC[C@H](OC(=O)C(O)(c4cccs4)c4cccs4)CC3)n2)c(Cl)cc1CNC[C@H](O)c1ccc(O)c2[nH]c(=O)ccc12 [Example 9, trans-4-[(3-{3-[2-chloro-4-({[(2R)-2-hydroxy-2-(8-hydroxy-2-oxo-1,2-dihydroquinolin-5-yl)ethyl]amino}methyl)-5-methoxyphenyl]-1,2,4-oxadiazol-5-yl}propyl)(methyl)amino]cyclohexyl hydroxy(di-2-thienyl)acetate dihydrofluoride]	–	–	2.2 nM	0.2 nM
COc1cc(OCC(=O)N(C)CCN(C)[C@H]2CC[C@H](OC(=O)C(O)(c3cccs3)c3cccs3)CC2)c(Cl)cc1CNC[C@H](O)c1ccc(O)c2[nH]c(=O)ccc12 [Example 10, trans-4-[{2-[{[2-chloro-4-({[(2R)-2-hydroxy-2-(8-hydroxy-2-oxo-1,2-dihydroquinolin-5-yl)ethyl]amino}methyl)-5-methoxyphenoxy]acetyl}(methyl)amino]ethyl}(methyl)amino]cyclohexyl hydroxy(di-2-thienyl)acetate dihydrofluoride]	–	–	5.7 nM	0.4 nM
CN(CCCn1c(=O)sc2cc(CNC[C@H](O)c3ccc(O)c4[nH]c(=O)ccc34)ccc21)[C@H]1CC[C@H](OC(=O)C(O)(c2cccs2)c2cccs2)CC1 [Example 11, trans-4-[{3-[6-({[(2R)-2-hydroxy-2-(8-hydroxy-2-oxo-1,2-dihydroquinolin-5-yl)ethyl]amino}methyl)-2-oxo-1,3-benzothiazol-3(2H)-yl]propyl}(methyl)amino]cyclohexyl hydroxy(di-2-thienyl)acetate dihydrofluoride]	4.2 nM	0.5 nM	–	–
CN(CCCn1c(=O)oc2cc(CNC[C@H](O)c3ccc(O)c4[nH]c(=O)ccc34)ccc21)[C@H]1CC[C@H](OC(=O)C2(C)c3ccccc3Oc3ccccc32)CC1 [Example 15, trans-4-[{3-[6-({[(2R)-2-hydroxy-2-(8-hydroxy-2-oxo-1,2-dihydroquinolin-5-yl)ethyl]amino}methyl)-2-oxo-1,3-benzoxazol-3(2H)-yl]propyl}(methyl)amino]cyclohexyl 9-methyl-9H-xanthene-9-carboxylate dihydrofluoride]	1.5 nM	1 nM	–	–
CN(CCCn1nnc2cc(CNC[C@H](O)c3ccc(O)c4[nH]c(=O)ccc34)ccc21)[C@H]1CC[C@H](OC(=O)[C@](O)(c2cccs2)C2CCCC2)CC1 [Example 17, trans-4-[{3-[5-({[(2R)-2-hydroxy-2-(8-hydroxy-2-oxo-1,2-dihydroquinolin-5-yl)ethyl]amino}methyl)-1H-1,2,3-benzotriazol-1-yl]propyl}(methyl)amino]cyclohexyl (2S)-cyclopentyl(hydroxy)-2-thienylacetate dihydrofluoride]	13 nM	0.6 nM	–	–
trans-4-[{3-[5-({[(2R)-2-hydroxy-2-(5-hydroxy-3-oxo-3,4-dihydro-2H-1,4-benzoxazin-8-yl)ethyl]amino}methyl)-1H-1,2,3-benzotriazol-1-yl]propyl}(methyl)amino]cyclohexyl (2S)-cyclopentyl(hydroxy)-2-thienylacetate dihydrofluoride [Example 18]	–	0.4 nM	–	–
trans-4-[{3-[6-(2-{[(2R)-2-hydroxy-2-(8-hydroxy-2-oxo-1,2-dihydroquinolin-5-yl)ethyl]amino}ethyl)-2-oxo-1,3-benzoxazol-3(2H)-yl]propyl}(methyl)amino]cyclohexyl hydroxy(di-2-thienyl)acetate dihydrofluoride [Example 19]	62 nM	0.8 nM	–	–
trans-4-{[2-({2-[4-(2-{[(2R)-2-hydroxy-2-(8-hydroxy-2-oxo-1,2-dihydroquinolin-5-yl)ethyl]amino}propyl)phenoxy]acetyl}amino)ethyl]amino}cyclohexyl hydroxy(di-2-thienyl)acetate dihydrofluoride [Example 20]	3.1 nM	3.6 nM	–	–

Reference: patent US20140303127A1, “NEW CYCLOHEXYLAMINE DERIVATIVES HAVING BETA 2 ADRENERGIC AGONIST AND M3 MUSCARINIC ANTAGONIST ACTIVITIES” (ALMIRALL, S.A., priority 2011, published 2014)
